{"source": "patent US8235110B2", "about": "“Preconditioning an oilfield reservoir” (Gushor Inc., priority 2006, dated 2012)", "key": {"[1]": {"assay": "Heating agent in water solution in sealed pressure vessels at SAGD conditions (gas generation by decomposition)", "format": "physicochemical", "description": "For illustrative purposes, an experiment conducted to simulate the impact of a recovery process on selected preconditioning agents under reservoir conditions shall be described. […] In one such experiment, the preconditioning agent was citric acid which was dissolved in water to create the water solution."}, "[2]": {"conditions": "cited from earlier work"}, "[3]": {"conditions": "5.0 g agent and 50 milliliters water, three days at 205° C., SAGD conditions"}, "[4]": {"conditions": "5 grams agent, 205° C., approx. 73 hours"}}, "data": [{"smiles": "O=C(O)C(=O)O", "note": "[oxalic acid dihydrate]", "values": [{"measurement": "carbon dioxide produced on conversion", "setting": "[1]; [3]", "value": "1.25 moles CO2/mole of oxalic acid dehydrate"}, {"measurement": "methane produced on conversion", "setting": "[1]; [3]", "value": "0.56 moles/mole of oxalic acid dihydrate"}]}, {"smiles": "O=C(O)CC(O)(CC(=O)O)C(=O)O", "note": "[Citric Acid, citric acid]", "values": [{"measurement": "methane in headspace gas", "setting": "[1]; [4]", "value": "approximately 1500 ppm"}, {"measurement": "propane in headspace gas", "setting": "[1]; [4]", "value": "~300", "unit": "ppm"}, {"measurement": "CO2 yielded in headspace", "setting": "[1]; approximately 5 grams agent (50 milliliters of 10% solution), 205° C., approx. 73 hours, approx. 990 psi", "value": "approximately 1.16 liters"}, {"measurement": "carbon dioxide yield scaled", "setting": "[1]; from 1 cubic meter of 10% solution", "value": "23,200 liters"}]}, {"smiles": "CCCC(C)=O", "note": "[MPK, methyl propyl ketone]", "values": [{"measurement": "Solubility in Water at 20° C.", "setting": "[2]", "value": 31, "unit": "mg/mL"}]}]}
